Results on two compounds are retold here after publication PMC6164480, “A New Synthetic Histone Deacetylase Inhibitor, MHY2256, Induces Apoptosis and Autophagy Cell Death in Endometrial Cancer Cells via p53 Acetylation” (International Journal of Molecular Sciences, 2018).

This experiment addresses T1, SIRT1 (Homo sapiens, UniProt Q96EB6).
T1 sequence (Q96EB6 2-747): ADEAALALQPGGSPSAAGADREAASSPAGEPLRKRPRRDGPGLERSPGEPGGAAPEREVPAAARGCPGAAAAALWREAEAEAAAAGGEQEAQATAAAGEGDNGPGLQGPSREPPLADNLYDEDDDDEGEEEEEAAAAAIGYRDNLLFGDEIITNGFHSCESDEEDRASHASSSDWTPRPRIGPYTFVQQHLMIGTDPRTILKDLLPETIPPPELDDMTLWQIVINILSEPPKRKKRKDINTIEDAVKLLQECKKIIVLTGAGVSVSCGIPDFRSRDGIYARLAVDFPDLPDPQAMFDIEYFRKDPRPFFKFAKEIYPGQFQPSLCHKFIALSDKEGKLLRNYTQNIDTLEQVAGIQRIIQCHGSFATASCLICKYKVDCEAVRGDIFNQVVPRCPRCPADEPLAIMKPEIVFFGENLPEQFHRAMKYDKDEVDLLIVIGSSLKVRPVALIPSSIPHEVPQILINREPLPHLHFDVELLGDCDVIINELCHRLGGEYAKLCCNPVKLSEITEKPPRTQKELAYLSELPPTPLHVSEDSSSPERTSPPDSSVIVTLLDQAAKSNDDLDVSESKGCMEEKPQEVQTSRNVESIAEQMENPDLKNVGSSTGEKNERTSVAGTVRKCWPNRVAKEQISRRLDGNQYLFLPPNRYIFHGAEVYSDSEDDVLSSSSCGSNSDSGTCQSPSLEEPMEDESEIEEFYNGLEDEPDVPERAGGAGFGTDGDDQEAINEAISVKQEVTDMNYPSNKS
Briefly: SensoLyte […] FRET fluorimetric SIRT1 enzyme activity assay kit. The format is biochemical.

By IC50 is commonly meant the concentration that gives 50% inhibition. Compound `CC(C)(C)c1cc(C=C2C(=O)NC(=S)NC2=O)cc(C(C)(C)C)c1O` [MHY2256, 5-(3,5-di-tert-butyl-4-hydroxybenzylidene)-2-thioxodihydropyrimidine-4,6(1H,5H)-dione] returned an IC50 of 1.89 µM. As to `CC(C(=O)Nc1cccc(/N=C/c2c(O)ccc3ccccc23)c1)c1ccccc1` (centres unmarked) [salermide], the IC50 is 4.8 µM.
